Test: pH adjustment of oritavancin/HPCD solution with 1N NaOH: visual observations
Format: physicochemical
Protocol: Reconstituting Orbactiv 400 mg (Oritavancin) in 20% w/v HPCD, diluting in saline then adjusting pH. The 50 mg/mL solution of oritavancin in 20% w/v HPCD (described in Table 3) was further diluted in 0.9% saline to 6 mg/mL in a small glass vial. The pH was adjusted using 1N NaOH. NaOH was added to the oritavancin solution in […] and vortexed. Visual observations and pH were recorded (Table 5).
Reconstituting Orbactiv 400 mg (Oritavancin) in 50% w/v HPCD aqueous solution, adjusting pH then diluting in saline. 6.269 g of HPCD was dissolved in 12.538 mL of water to make a 50% w/v solution (pH=7.23). Seven (7) mL of the 50% w/v solution was added to a 400 mg vial of Orbactiv for a target oritavancin concentration of 57.14 mg/mL. […] A 2 mL aliquot of 57.14 mg/mL was removed from the vial and placed in a small glass vial. The pH was adjusted to 6.5 using 1N NaOH. NaOH was added to the oritavancin solution in 5 μL increments and vortexed. Visual observations and pH were recorded (Table 6).
Reconstituting Orbactiv 400 mg (Oritavancin) in 50% w/v aqueous HPCD, adjusting pH then diluting in saline. 6.112 g of HPCD was dissolved in 12.224 mL of water to make a 50% w/v solution (pH=6.74). Seven (7) mL of the 50% w/v HPCD solution was added to a 400 mg vial of Orbactiv for a target oritavancin concentration of 57.14 mg/mL. […] A 3 mL aliquot of 57.14 mg/mL was removed from the vial and placed in a small glass vial. The pH was adjusted to 7 using 1N NaOH. NaOH was added to the oritavancin solution in 5 μL increments and vortexed. Visual observations and pH were recorded (Table 8).
Reconstituting Orbactiv 400 mg (Oritavancin) in 20% w/v aqueous HPCD, adjusting pH then diluting in saline. 3.555 g of HPCD was dissolved in 17.775 mL of water to make a 20% w/v solution (pH=6.88). Seven (7) mL of the 20% w/v HPCD solution was added to a 400 mg vial of Orbactiv for a target oritavancin concentration of 57.14 mg/mL. […] A 3 mL aliquot of 57.14 mg/mL was removed from the vial and placed in a small glass vial. The pH was adjusted to 7 using 1N NaOH. NaOH was added to the oritavancin solution in 5 μL increments and vortexed. Visual observations and pH were recorded. (Table 10).

CN[C@H](CC(C)C)C(=O)N[C@H]1C(=O)N[C@@H](CC(N)=O)C(=O)N[C@H]2C(=O)N[C@H]3C(=O)N[C@H](C(=O)N[C@H](C(=O)O)c4cc(O)cc(O)c4-c4cc3ccc4O)[C@H](O[C@H]3C[C@](C)(N)[C@@H](O)[C@H](C)O3)c3ccc(c(Cl)c3)Oc3cc2cc(c3O[C@@H]2O[C@H](CO)[C@@H](O)[C@H](O)[C@H]2O[C@H]2C[C@](C)(NCc3ccc(-c4ccc(Cl)cc4)cc3)[C@@H](O)[C@H](C)O2)Oc2ccc(cc2Cl)[C@H]1O [Oritavancin]
Observations (20% w/v HPCD reconstitution (3 mL aliquot), 1N NaOH 135 μL, pH 6.57, oritavancin 54.30 mg/mL): Clear, colorless solution | Observations (20% w/v HPCD reconstitution (3 mL aliquot), 1N NaOH 140 μL, pH 6.62, oritavancin 54.19 mg/mL): Clear, colorless solution | Observations (20% w/v HPCD reconstitution (3 mL aliquot), 1N NaOH 145 μL, pH 6.65, oritavancin 54.09 mg/mL): Clear, colorless solution | Observations (20% w/v HPCD reconstitution (3 mL aliquot), 1N NaOH 150 μL, pH 6.69, oritavancin 53.97 mg/mL): Clear, colorless solution | Observations (20% w/v HPCD reconstitution (3 mL aliquot), 1N NaOH 155 μL, pH 6.72, oritavancin 53.86 mg/mL): Clear, colorless solution | Observations (20% w/v HPCD reconstitution (3 mL aliquot), 1N NaOH 160 μL, pH 6.76, oritavancin 53.75 mg/mL): Clear, colorless solution. | Observations (20% w/v HPCD reconstitution (3 mL aliquot), 1N NaOH 165 μL, pH 6.80, oritavancin 53.63 mg/mL): Clear, colorless solution | Observations (20% w/v HPCD reconstitution (3 mL aliquot), 1N NaOH 170 μL, pH 6.82, oritavancin 53.51 mg/mL): Clear, colorless solution | Observations (20% w/v HPCD reconstitution (3 mL aliquot), 1N NaOH 175 μL, pH 6.86, oritavancin 53.40 mg/mL): Clear, colorless solution | Observations (20% w/v HPCD reconstitution (3 mL aliquot), 1N NaOH 180 μL, pH 6.90, oritavancin 53.28 mg/mL): Clear, colorless solution | Observations (20% w/v HPCD reconstitution (3 mL aliquot), 1N NaOH 185 μL, pH 6.93, oritavancin 53.17 mg/mL): Clear, colorless solution | Observations (20% w/v HPCD reconstitution (3 mL aliquot), 1N NaOH 190 μL, pH 6.98, oritavancin 53.05 mg/mL): Clear, colorless solution | Observations (20% w/v HPCD reconstitution (3 mL aliquot), 1N NaOH 195 μL, pH 7.03, oritavancin 52.94 mg/mL): Clear, colorless solution. | Observations (20% w/v HPCD reconstitution diluted in 0.9% saline, 1N NaOH 0 μL, pH 4.10, oritavancin 6.00 mg/mL): Clear, colorless solution | Observations (20% w/v HPCD reconstitution diluted in 0.9% saline, 1N NaOH 5 μL, pH 5.33, oritavancin 5.99 mg/mL): Clear, colorless solution | Observations (20% w/v HPCD reconstitution diluted in 0.9% saline, 1N NaOH 10 μL, pH 6.05, oritavancin 5.97 mg/mL): Clear, colorless solution | pH at which adjusting with 1N NaOH caused visible precipitation (20% w/v HPCD reconstitution diluted to 6 mg/mL in 0.9% saline): > 6 | Observations (50% w/v HPCD reconstitution (2 mL aliquot), 1N NaOH 0 μL, pH 4.08, oritavancin 57.14 mg/mL): Clear, colorless solution | Observations (50% w/v HPCD reconstitution (2 mL aliquot), 1N NaOH 5 μL, pH 4.26, oritavancin 57.10 mg/mL): Clear, colorless solution | Observations (50% w/v HPCD reconstitution (2 mL aliquot), 1N NaOH 10 μL, pH 4.56, oritavancin 57.06 mg/mL): Clear, colorless solution | Observations (50% w/v HPCD reconstitution (2 mL aliquot), 1N NaOH 15 μL, pH 4.90, oritavancin 57.02 mg/mL): Clear, colorless solution | Observations (50% w/v HPCD reconstitution (2 mL aliquot), 1N NaOH 20 μL, pH 5.19, oritavancin 56.98 mg/mL): Clear, colorless solution | Observations (50% w/v HPCD reconstitution (2 mL aliquot), 1N NaOH 25 μL, pH 5.39, oritavancin 56.94 mg/mL): Clear, colorless solution | Observations (50% w/v HPCD reconstitution (2 mL aliquot), 1N NaOH 30 μL, pH 5.65, oritavancin 56.90 mg/mL): Clear, colorless solution. | Observations (50% w/v HPCD reconstitution (2 mL aliquot), 1N NaOH 35 μL, pH 5.81, oritavancin 56.86 mg/mL): Clear, colorless solution. | Observations (50% w/v HPCD reconstitution (2 mL aliquot), 1N NaOH 40 μL, pH 6.10, oritavancin 56.82 mg/mL): Clear, colorless solution. | Observations (50% w/v HPCD reconstitution (2 mL aliquot), 1N NaOH 45 μL, pH 6.17, oritavancin 56.78 mg/mL): Clear, colorless solution. | Observations (50% w/v HPCD reconstitution (2 mL aliquot), 1N NaOH 50 μL, pH 6.33, oritavancin 56.74 mg/mL): Clear, colorless solution. | Observations (50% w/v HPCD reconstitution (3 mL aliquot), 1N NaOH 0 μL, pH 4.05, oritavancin 57.14 mg/mL): Clear, colorless solution. | Observations (50% w/v HPCD reconstitution (3 mL aliquot), 1N NaOH 5 μL, pH 4.28, oritavancin 57.04 mg/mL): Clear, colorless solution | Observations (50% w/v HPCD reconstitution (3 mL aliquot), 1N NaOH 10 μL, pH 4.44, oritavancin 56.94 mg/mL): Clear, colorless solution | Observations (50% w/v HPCD reconstitution (3 mL aliquot), 1N NaOH 15 μL, pH 4.68, oritavancin 56.84 mg/mL): Clear, colorless solution | Observations (50% w/v HPCD reconstitution (3 mL aliquot), 1N NaOH 20 μL, pH 4.93, oritavancin 56.74 mg/mL): Clear, colorless solution | Observations (50% w/v HPCD reconstitution (3 mL aliquot), 1N NaOH 25 μL, pH 5.11, oritavancin 56.64 mg/mL): Clear, colorless solution | Observations (50% w/v HPCD reconstitution (3 mL aliquot), 1N NaOH 30 μL, pH 5.23, oritavancin 56.54 mg/mL): Clear, colorless solution | Observations (50% w/v HPCD reconstitution (3 mL aliquot), 1N NaOH 35 μL, pH 5.36, oritavancin 56.44 mg/mL): Clear, colorless solution | Observations (50% w/v HPCD reconstitution (3 mL aliquot), 1N NaOH 40 μL, pH 5.48, oritavancin 56.35 mg/mL): Clear, colorless solution. | Observations (50% w/v HPCD reconstitution (3 mL aliquot), 1N NaOH 45 μL, pH 5.77, oritavancin 56.24 mg/mL): Clear, colorless solution | Observations (50% w/v HPCD reconstitution (3 mL aliquot), 1N NaOH 50 μL, pH 5.82, oritavancin 56.14 mg/mL): Clear, colorless solution | Observations (50% w/v HPCD reconstitution (3 mL aliquot), 1N NaOH 55 μL, pH 5.85, oritavancin 56.03 mg/mL): Clear, colorless solution | Observations (50% w/v HPCD reconstitution (3 mL aliquot), 1N NaOH 60 μL, pH 5.94, oritavancin 55.93 mg/mL): Clear, colorless solution | Observations (50% w/v HPCD reconstitution (3 mL aliquot), 1N NaOH 65 μL, pH 6.05, oritavancin 55.83 mg/mL): Clear, colorless solution. | Observations (50% w/v HPCD reconstitution (3 mL aliquot), 1N NaOH 70 μL, pH 6.15, oritavancin 55.72 mg/mL): Clear, colorless solution | Observations (50% w/v HPCD reconstitution (3 mL aliquot), 1N NaOH 75 μL, pH 6.20, oritavancin 55.61 mg/mL): Clear, colorless solution | Observations (50% w/v HPCD reconstitution (3 mL aliquot), 1N NaOH 80 μL, pH 6.23, oritavancin 55.50 mg/mL): Clear, colorless solution | Observations (50% w/v HPCD reconstitution (3 mL aliquot), 1N NaOH 85 μL, pH 6.34, oritavancin 55.39 mg/mL): Clear, colorless solution | Observations (50% w/v HPCD reconstitution (3 mL aliquot), 1N NaOH 90 μL, pH 6.32, oritavancin 55.28 mg/mL): Clear, colorless solution | Observations (50% w/v HPCD reconstitution (3 mL aliquot), 1N NaOH 95 μL, pH 6.38, oritavancin 55.17 mg/mL): Clear, colorless solution | Observations (50% w/v HPCD reconstitution (3 mL aliquot), 1N NaOH 100 μL, pH 6.46, oritavancin 55.07 mg/mL): Clear, colorless solution. | Observations (50% w/v HPCD reconstitution (3 mL aliquot), 1N NaOH 105 μL, pH 6.57, oritavancin 54.95 mg/mL): Clear, colorless solution | Observations (50% w/v HPCD reconstitution (3 mL aliquot), 1N NaOH 110 μL, pH 6.59, oritavancin 54.84 mg/mL): Clear, colorless solution | Observations (50% w/v HPCD reconstitution (3 mL aliquot), 1N NaOH 115 μL, pH 6.71, oritavancin 54.73 mg/mL): Clear, colorless solution | Observations (50% w/v HPCD reconstitution (3 mL aliquot), 1N NaOH 120 μL, pH 6.70, oritavancin 54.61 mg/mL): Clear, colorless solution | Observations (50% w/v HPCD reconstitution (3 mL aliquot), 1N NaOH 125 μL, pH 6.75, oritavancin 54.50 mg/mL): Clear, colorless solution. | Observations (50% w/v HPCD reconstitution (3 mL aliquot), 1N NaOH 130 μL, pH 6.90, oritavancin 54.38 mg/mL): Clear, colorless solution | Observations (50% w/v HPCD reconstitution (3 mL aliquot), 1N NaOH 135 μL, pH 6.90, oritavancin 54.26 mg/mL): Clear, colorless solution | Observations (50% w/v HPCD reconstitution (3 mL aliquot), 1N NaOH 140 μL, pH 6.96, oritavancin 54.14 mg/mL): Clear, colorless solution.
